The structures appear in SMILES notation. Where a name gives a salt, the structure may show the parent alone.

Drawing on US20230279025A1, “KRAS G12D INHIBITORS” (Mirati Therapeutics, Inc., priority 2020, published 2023), this text covers IC50 for 24 compounds.

In the experiment the target is KRas G12D (Homo sapiens (Human), UniProt P01116, G12D). As to the kind of experiment: KRas G12D Binding Assay (TR-FRET displacement of Cy5 labelled tracer). The following applies: GDP-loaded KRAS G12D (amino acids 1:169), 60 minute incubation at 22° C. On the procedure:
After a 60 minute incubation at 22° C., the reaction was measured using a PerkinElmer EnVision multimode plate reader via TR-FRET dual wavelength detection, and the percent of control (POC) calculated using a ratiometric emission factor. […] The POC values were fit to a 4-parameter logistic curve and the IC50 value was determined as the concentration where the curve crosses 50 POC.
ND stands for “not determined.”

Sequence of KRas G12D (P01116 other isoform, or with tags, fused parts or gaps G12D): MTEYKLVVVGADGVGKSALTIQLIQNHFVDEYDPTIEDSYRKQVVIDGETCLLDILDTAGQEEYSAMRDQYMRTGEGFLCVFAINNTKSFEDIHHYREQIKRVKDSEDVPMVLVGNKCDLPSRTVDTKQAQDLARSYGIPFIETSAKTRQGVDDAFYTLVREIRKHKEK

As to `O=C(O[C@@H]1CN2CCC[C@]2(COc2nc(N3C[C@H]4CC[C@@H](C3)N4)c3cnc(-c4cccc5cccc(Cl)c45)c(F)c3n2)C1)N1CCOCC1` [Example 436, (2S,7aR)-7a-(((4-((1R,5S)-3,8-diazabicyclo[3.2.1]octan-3-yl)-7-(8-chloronaphthalen-1-yl)-8-fluoropyrido[4,3-d]pyrimidin-2-yl)oxy)methyl)hexahydro-1H-pyrrolizin-2-yl morpholine-4-carboxylate], the half-inhibitory concentration (IC50) came to 48.3 nM.
Compound `CN(C)C(=O)OC[C@H]1CC[C@@]2(COc3nc(N4CC5CCC(C4)N5)c4cnc(-c5cccc6cccc(Cl)c56)c(F)c4n3)CCCN12` [Example 405, (7a-(((4-(3,8-diazabicyclo[3.2.1]octan-3-yl)-7-(8-chloronaphthalen-1l-yl)-8-fluoropyrido[4,3-d]pyrimidin-2-yl)oxy)methyl)hexahydro-1H-pyrrolizin-3-yl)methyl dimethylcarbamate] registered a half-inhibitory concentration (IC50) of 2.2 nM.
The compound `CN1CCCC1(CO)COc1nc(N2C[C@H]3CC[C@@H](C2)N3)c2cnc(-c3cccc4ccccc34)c(F)c2n1` (stereo partly drawn) [Example 323, (2-(((4-((1R,5S)-3,8-diazabicyclo[3.2.1]octan-3-yl)-8-fluoro-7-(naphthalen-1-yl)pyrido[4,3-d]pyrimidin-2-yl)oxy)methyl)-1-methylpyrrolidin-2-yl)methanol] yielded an IC50 of 1690 nM.
`Fc1ccc2cccc(-c3ncc4c(N5C[C@H]6CC[C@@H](C5)N6)nc(OCC56CCCN5CCC6)nc4c3F)c2c1` [Example 460, 4-((1R,5S)-3,8-diazabicyclo[3.2.1]octan-3-yl)-8-fluoro-7-(7-fluoronaphthalen-1-yl)-2-((hexahydro-1H-pyrrolizin-7a-yl)methoxy)pyrido[4,3-d]pyrimidine] had an IC50 of 0.027 nM.
Then `CSc1ccccc1-c1ncc2c(N3C[C@H]4CC[C@@H](C3)N4)nc(OCC34CCCN3CCC4)nc2c1F` [Example 329, 4-((1R,5S)-3,8-diazabicyclo[3.2.1]octan-3-yl)-8-fluoro-7-(2-(methylthio)phenyl)-2-((tetrahydro-1H-pyrrolizin-7a(5H)-yl)methoxy)pyrido[4,3-d]pyrimidine], with 202 nM.
Compound `Nc1nc2c(-c3ncc4c(N5C[C@H]6CC[C@@H](C5)N6)nc(OCC56CCCN5CCC6)nc4c3F)ccc(F)c2s1` [Example 455, 4-(4-((1R,5S)-3,8-diazabicyclo[3.2.1]octan-3-yl)-8-fluoro-2-((hexahydro-1H-pyrrolizin-7a-yl)methoxy)pyrido[4,3-d]pyrimidin-7-yl)-7-fluorobenzo[d]thiazol-2-amine] displayed an IC50 of 17 nM.
Turning to `Fc1c(-c2c(OC(F)(F)F)ccc3[nH]ncc23)ncc2c(N3C[C@H]4CC[C@@H](C3)N4)nc(OCC34CCCN3CCC4)nc12` [Example 258, 4-((1R,5S)-3,8-diazabicyclo[3.2.1]octan-3-yl)-8-fluoro-2-((hexahydro-1H-pyrrolizin-7a-yl)methoxy)-7-(5-(trifluoromethoxy)-1H-indazol-4-yl)pyrido[4,3-d]pyrimidine], the IC50 worked out at 6.5 nM. Against the preceding compound, the IC50 is about 2.6-fold lower.
Then `Cc1cc(-c2ncc3c(N4C[C@H]5CC[C@@H](C4)N5)nc(OCC45CCCN4CCC5)nc3c2F)c2c(Cl)cccc2c1` [Example 175, 4-((1R,5S)-3,8-diazabicyclo[3.2.1]octan-3-yl)-7-(8-chloro-3-methylnaphthalen-1-yl)-8-fluoro-2-((hexahydro-1H-pyrrolizin-7a-yl)methoxy)pyrido[4,3-d]pyrimidine], with 63.8 nM; and `CC(C)c1ccccc1-c1ncc2c(N3CC4CCC(C3)N4)nc(OCC34CCCN3C[C@H](F)C4)nc2c1F` (stereo partly drawn) [Example 348, 4-((1R,5S)-3,8-diazabicyclo[3.2.1]octan-3-yl)-8-fluoro-2-((2-fluorotetrahydro-1H-pyrrolizin-7a(5H)-yl)methoxy)-7-(2-isopropylphenyl)pyrido[4,3-d]pyrimidine], with 15.5 nM.
Take `Cn1nccc1CCOc1nc(N2C[C@H]3CC[C@@H](C2)N3)c2cnc(-c3cccc4cccc(Cl)c34)c(F)c2n1` [Example 144, 4-((1R,5S)-3,8-diazabicyclo[3.2.1]octan-3-yl)-7-(8-chloronaphthalen-1-yl)-8-fluoro-2-(2-(1-methyl-1H-pyrazol-5-yl)ethoxy)pyrido[4,3-d]pyrimidine]: the IC50 was 1700 nM. This IC50 lies about 110-fold higher than the previous one.
Then `Oc1cc(Cl)c(C(F)(F)F)c(-c2ncc3c(N4C[C@H]5CC[C@@H](C4)N5)nc(OC[C@@]45CCCN4C[C@H](F)C5)nc3c2F)c1` [Example 284, 3-(4-((1R,5S)-3,8-diazabicyclo[3.2.1]octan-3-yl)-8-fluoro-2-(((2R,7aS)-2-fluorohexahydro-1H-pyrrolizin-7a-yl)methoxy)pyrido[4,3-d]pyrimidin-7-yl)-5-chloro-4-(trifluoromethyl)phenol], with 0.1 nM; and `N#Cc1cccc2cccc(-c3ncc4c(N5C[C@H]6CC[C@@H](C5)N6)nc(OCC56CCCN5CCC6)nc4c3F)c12` [Example 198, 8-(4-((1R,5S)-3,8-diazabicyclo[3.2.1]octan-3-yl)-8-fluoro-2-((tetrahydro-1H-pyrrolizin-7a(5H)-yl)methoxy)pyrido[4,3-d]pyrimidin-7-yl)-1-naphthonitrile], with 20.3 nM; and `Fc1c(-c2cccc3cccc(Cl)c23)ncc2c(N3CC4CCC(C3)N4)nc(OC[C@]34CCCN3C[C@H](c3ccccc3)C4)nc12` (stereo in doubt) [Example 221, 4-((1R,5S)-3,8-diazabicyclo[3.2.1]octan-3-yl)-7-(8-chloronaphthalen-1-yl)-8-fluoro-2-((2-phenyltetrahydro-1H-pyrrolizin-7a(5H)-yl)methoxy)pyrido[4,3-d]pyrimidine bis-hydrochloride salt], with 15.7 nM.
Then `Nc1nc(N2CC3CCC(C2)N3)c2cnc(-c3cc(O)cc4ccccc34)c(F)c2n1` [Example 182, 4-[2-amino-4-(3,8-diazabicyclo[3.2.1]octan-3-yl)-8-fluoro-pyrido[4,3-d]pyrimidin-7-yl]naphthalen-2-ol], with 269 nM.
Then `Nc1nccn1CCOc1nc(N2CC3CCC(C2)N3)c2cnc(-c3cccc4cccc(Cl)c34)c(F)c2n1` [Example 178, 1-[2-[7-(8-chloro-1-naphthyl)-4-(3,8-diazabicyclo[3.2.1]octan-3-yl)-8-fluoro-pyrido[4,3-d]pyrimidin-2-yl]oxyethyl]imidazol-2-amine], with 105 nM.
As for `CC1(C)CN2CCCC2(COc2nc(N3CC4CCC(C3)N4)c3cnc(-c4cccc5cccc(Cl)c45)c(F)c3n2)C1` [Example 228, 4-((1R,5S)-3,8-diazabicyclo[3.2.1]octan-3-yl)-7-(8-chloronaphthalen-1-yl)-2-((2,2-dimethyltetrahydro-1H-pyrrolizin-7a(5H)-yl)methoxy)-8-fluoropyrido[4,3-d]pyrimidine bis-2,2,2-trifluoroacetate], the IC50 is 87.7 nM.
Then `N=C(N)NCCOc1nc(N2CC3CCC(C2)N3)c2cnc(-c3cccc4cccc(Cl)c34)c(F)c2n1` [Example 176, 1-[2-[7-(8-chloro-1-naphthyl)-4-(3,8-diazabicyclo[3.2.1]octan-3-yl)-8-fluoro-pyrido[4,3-d]pyrimidin-2-yl]oxyethyl]guanidine], with 235 nM; and `N=C(N)NCCCOc1nc(N2CC3CCC(C2)N3)c2cnc(-c3cccc4cccc(Cl)c34)c(F)c2n1` [Example 177, 1-[3-[7-(8-chloro-1-naphthyl)-4-(3,8-diazabicyclo[3.2.1]octan-3-yl)-8-fluoro-pyrido[4,3-d]pyrimidin-2-yl]oxypropyl]guanidine], with 187 nM.
`COCc1cccc2cccc(-c3ncc4c(N5C[C@H]6CC[C@@H](C5)N6)nc(OC[C@@]56CCCN5C[C@H](F)C6)nc4c3F)c12` [Example 423, 4-((1R,5S)-3,8-diazabicyclo[3.2.1]octan-3-yl)-8-fluoro-2-(((2R,7aS)-2-fluorohexahydro-1H-pyrrolizin-7a-yl)methoxy)-7-(8-(methoxymethyl)naphthalen-1-yl)pyrido[4,3-d]pyrimidine] returned an IC50 of 238 nM.
Then `Fc1c(-c2cccc3cccc(F)c23)ncc2c(N3C[C@H]4CC[C@@H](C3)N4)nc(OCC34CCCN3CCC4)nc12` [Example 234, 4-((1R,5S)-3,8-diazabicyclo[3.2.1]octan-3-yl)-8-fluoro-7-(8-fluoronaphthalen-1-yl)-2-((tetrahydro-1H-pyrrolizin-7a(5H)-yl)methoxy)pyrido[4,3-d]pyrimidine], with 5.9 nM; and `CN1CCC[C@H]1COc1nc(N2C[C@H]3CC[C@@H](C2)N3)c2cnc(-c3cccc4cccc(C#CCO)c34)c(F)c2n1` [Example 194, 3-(8-(4-((1R,5S)-3,8-diazabicyclo[3.2.1]octan-3-yl)-8-fluoro-2-(((S)-1-methylpyrrolidin-2-yl)methoxy)pyrido[4,3-d]pyrimidin-7-yl)naphthalen-1-yl)prop-2-yn-1-ol], with 151 nM.
Then `C#Cc1c(F)ccc2cccc(-c3ncc4c(N5C[C@H]6CC[C@@H](C5)N6)nc(OC[C@@]56CCCN5C[C@H](F)C6)nc4c3F)c12` [Example 281, 4-((1R,5S)-3,8-diazabicyclo[3.2.1]octan-3-yl)-7-(8-ethynyl-7-fluoronaphthalen-1-yl)-8-fluoro-2-(((2R,7aS)-2-fluorohexahydro-1H-pyrrolizin-7a-yl)methoxy)pyrido[4,3-d]pyrimidine], with 0.9 nM; and `CC(C)c1cccc(C(C)C)c1-c1ncc2c(N3C[C@H]4CC[C@@H](C3)N4)nc(OCC34CCCN3CC(F)C4)nc2c1F` (stereo partly drawn) [Example 394, 4-((1R,5S)-3,8-diazabicyclo[3.2.1]octan-3-yl)-7-(2,6-diisopropylphenyl)-8-fluoro-2-((2-fluorotetrahydro-1H-pyrrolizin-7a(5H)-yl)methoxy)pyrido[4,3-d]pyrimidine], with 2500 nM; and `CCNc1c(F)cccc1-c1ncc2c(N3C[C@H]4CC[C@@H](C3)N4)nc(OCC34CCCN3CCC4)nc2c1F` [Example 269, 2-(4-((1R,5S)-3,8-diazabicyclo[3.2.1]octan-3-yl)-8-fluoro-2-((hexahydro-1H-pyrrolizin-7a-yl)methoxy)pyrido[4,3-d]pyrimidin-7-yl)-N-ethyl-6-fluoroaniline], with 4040 nM.
